Results reported in paper PMC3257379 (Amino Acids, 2011).
Positions of bridges follow the written chain, without caps; N, C: chain ends. No end group written: not given here.

Columns and labels:
MDA-MB-435 xenografts = details: systemic LyP-1 peptide treatment of xenografted tumor mice; ref Laakkonen et al. 2004; cited from earlier work
[1] = system: tumor-draining brachial LNs of 4T1 tumor-bearing BALB/C mice; test: Ex vivo optical; format: in vivo, mouse; details: day 21 after tumor inoculation; 0.8 nmol, 24 h post injection; no blocking; n = 3/group

CGNKRTRGC (disulfide 1-9 (inferred)) [LyP-1]
Effect on tumor growth (MDA-MB-435 xenografts): inhibited tumor growth

Cy5.5
Average signal of tumor-draining LNs [1]: 25.6 ± 0.25 ×10^3 photon/cm^2/s
